From patent US8293781B2, “Indole derivatives having cPLA2 inhibiting activity and applications and production methods of the same” (Daiichi Sankyo Company, Limited, priority 2007, dated 2012) come the findings set out here.

Structures are written as SMILES. Where a name gives a salt, the structure may show the parent alone.

For the first assay, the target named is T1, cPLA2 crudely purified from the cytoplasm fraction of U937 (Homo sapiens, UniProt P47712).
T1 construct: cPLA2 crudely purified from the cytoplasm fraction of U937; endogenous in cells; host or cells: U937 cells (cytoplasm fraction, crude purification)
T1 sequence (P47712 1-749): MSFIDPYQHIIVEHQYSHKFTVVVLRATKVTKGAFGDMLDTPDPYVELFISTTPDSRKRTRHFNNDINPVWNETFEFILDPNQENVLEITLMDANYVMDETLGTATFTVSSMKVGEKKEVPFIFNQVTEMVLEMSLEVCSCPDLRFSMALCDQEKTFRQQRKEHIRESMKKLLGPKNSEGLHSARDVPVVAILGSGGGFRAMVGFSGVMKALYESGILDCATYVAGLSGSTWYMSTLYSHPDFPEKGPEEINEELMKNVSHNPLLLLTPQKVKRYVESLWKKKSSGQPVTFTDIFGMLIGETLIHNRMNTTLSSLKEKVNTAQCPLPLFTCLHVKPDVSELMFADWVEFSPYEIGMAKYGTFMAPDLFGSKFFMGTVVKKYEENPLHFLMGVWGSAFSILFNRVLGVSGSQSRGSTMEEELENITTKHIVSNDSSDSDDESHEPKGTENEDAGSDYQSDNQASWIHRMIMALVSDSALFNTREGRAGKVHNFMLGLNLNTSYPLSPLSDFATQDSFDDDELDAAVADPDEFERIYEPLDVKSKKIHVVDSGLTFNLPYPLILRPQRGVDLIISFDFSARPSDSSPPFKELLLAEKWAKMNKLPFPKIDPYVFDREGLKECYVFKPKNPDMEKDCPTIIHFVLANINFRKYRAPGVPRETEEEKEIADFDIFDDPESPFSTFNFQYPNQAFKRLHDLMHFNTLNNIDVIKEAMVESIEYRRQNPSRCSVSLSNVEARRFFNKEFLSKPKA
Description: Measurement of cPLA2 inhibitory activity (release of [14C]-arachidonic acid from phosphatidyl choline liposome). It is filed as biochemical.
Conditions: not given
The procedure:
The cPLA2 inhibitory activity was measured based on the method described in the document [See H. Naraba et al., J. Immunol. 160, 2974-2982 (1998)] and modified in the following way.
A DMSO solution of the present invitation compounds was diluted to 2.5 times the final concentration with the assay buffer (4 mM CaCl2, 2 mM dithiothreitol, 150 mM NaCl, 50 mM HEPES buffer solution (pH7.5)) containing 0.55 mg/ml BSA. To 20 μl of this, cPLA2 crudely purified from the cytoplasm fraction of U937 was added in an amount of 10 μl after dilution by an assay buffer solution containing 0.55 mg/ml BSA. A liposome prepared by ultrasonically treating L-α-1-palmitoyl-2-[14C]arachidonyl-phosphatidyl choline (made by PerkinElmer) and adjusted by the assay buffer solution to a concentration of phosphatidyl choline of 10 μM was added and stirred in by an amount of 20 μl and the mixture was reacted at 37° C. for 60 minutes. The [^14C]-arachidonic acid released due to the reaction was extracted based on the method described in the documents [see V. P. Dole et al., J. Biol. Chem. 235, 2595 (1960)], was added to Lumaplate® (made by PerkinElmer), dried, then measured by Topcount® (made by PerkinElmer). Except for not adding the present invention compounds, the same procedure was performed as the above to obtain the enzyme control. Except for not adding the invention compounds and not adding the enzyme, the same procedure was followed as above to obtain a negative control. The inhibiting activity was expressed as a percent (%) of the value minus the negative control with respect to the value of the enzyme control minus the negative control. From this, the 50% inhibiting concentration (IC50, μM) was calculated.
Regarding `O=C(O)/C=C/c1ccc2c(c1)c(C(=O)Cc1ccc(F)cc1)cn2-c1ccccc1` [Example 60, (2E)-3-{3-[(4-fluorophenyl)acetyl]-1-phenyl-1H-indol-5-yl}-2-propenoic acid], the IC50 was determined as 5.72 µM.

For the compound `O=C(O)CCc1ccc2c(c1)c(C(=O)Cc1ccc(F)cc1)cn2-c1ccccc1` [Example 61, 3-{3-[(4-fluorophenyl)acetyl]-1-phenyl-1H-indol-5-yl}propanoic acid], the IC50 was 0.653 µM. Regarding `COc1ccc(CC(=O)c2cn(-c3ccccc3)c3ccc(/C=C/C(=O)O)cc23)cc1` [Example 64, (2E)-3-{3-[(4-methoxyphenyl)acetyl]-1-phenyl-1H-indol-5-yl}-2-propenoic acid], the IC50 stood at 19.6 µM.

Regarding `COc1ccc(CC(=O)c2cn(-c3ccccc3)c3ccc(CCC(=O)O)cc23)cc1` [Example 65, 3-{3-[(4-methoxyphenyl)acetyl]-1-phenyl-1H-indol-5-yl}propanoic acid], the IC50 is 1.91 µM.

Staying with this assay, now noted: cPLA2 from U937 cytoplasm fraction, [14C]arachidonyl-phosphatidyl choline liposome, 37° C., 60 minutes; read-out: cPLA2 inhibitory activity, 50% inhibiting concentration IC50.
With `O=C(O)CCc1ccc2c(c1)c(CCc1ccc(Cl)cc1)cn2-c1ccccc1` [Example 58, 3-{3-[2-(4-chlorophenyl)ethyl]-1-phenyl-1H-indol-5-yl}propanoic acid 2-amino-2-(hydroxymethyl)propane-1,3-diol salt (1:1)], the IC50 is 1.16 µM.

With `O=C(O)CCc1ccc2c(c1)c(CCc1ccc(F)cc1)cn2-c1ccccc1` [Example 62, 3-{3-[2-(4-fluorophenyl)ethyl]-1-phenyl-1H-indol-5-yl}propanoic acid 2-amino-2-(hydroxymethyl)propane-1,3-diol salt (1:1)], the IC50 is 0.565 µM.

Take `COc1ccc(CCc2cn(-c3ccccc3)c3ccc(CCC(=O)O)cc23)cc1` [Example 66, 3-{3-[2-(4-methoxyphenyl)ethyl]-1-phenyl-1H-indol-5-yl}propanoic acid 2-amino-2-(hydroxymethyl)propane-1,3-diol salt (1:1)]: the IC50 worked out at 0.718 µM. The same measure, in the same setting: in the case of `COc1cccc(CCc2cn(-c3ccccc3)c3ccc(CCC(=O)O)cc23)c1` [Example 68, 3-{3-[2-(3-methoxyphenyl)ethyl]-1-phenyl-1H-indol-5-yl}propanoic acid 2-amino-2-(hydroxymethyl)propane-1,3-diol salt (1:1)] it was 1 µM; in that of `COc1ccc(CCc2cn(-c3ccccc3)c3ccc(CCC(=O)O)cc23)cc1OC` [Example 70, 3-{3-[2-(3,4-dimethoxyphenyl)ethyl]-1-phenyl-1H-indol-5-yl}propanoic acid 2-amino-2-(hydroxymethyl)propane-1,3-diol salt (1:1)], 1.36 µM. On to `COc1ccc(-n2cc(CCc3ccccc3)c3cc(/C=C/C(=O)O)ccc32)cc1` [Example 74, (2E)-3-[1-(4-methoxyphenyl)-3-(2-phenylethyl)-1H-indol-5-yl]-2-propenoic acid], for which the IC50 is 0.157 µM.

For `COc1ccc(-n2cc(CCc3ccccc3)c3cc(CCC(=O)O)ccc32)cc1` [Example 77, 3-[1-(4-methoxyphenyl)-3-(2-phenylethyl)-1H-indol-5-yl]propanoic acid 2-amino-2-(hydroxymethyl)propane-1,3-diol salt (1:1)], the IC50 amounted to 0.026 µM. For `O=C(O)CCc1ccc2c(c1)c(CCc1ccccc1)cn2-c1ccc(C(=O)O)cc1` [Example 79, 4-[5-(2-carboxyethyl)-3-(2-phenylethyl)-1H-indol-1-yl]benzoic acid], the IC50 amounted to 0.18 µM.

Take `N#Cc1ccc(-n2cc(CCc3ccccc3)c3cc(CCC(=O)O)ccc32)cc1` [Example 81, 3-[1-(4-cyanophenyl)-3-(2-phenylethyl)-1H-indol-5-yl]propanoic acid]: the IC50 was 0.058 µM. Same read-out and setting: under `O=C(O)CCc1ccc2c(c1)c(CCc1ccccc1)cn2-c1ccc([N+](=O)[O-])cc1` [Example 83, 3-[1-(4-nitrophenyl)-3-(2-phenylethyl)-1H-indol-5-yl]propanoic acid] stands 0.101 µM. Consider `CN(C)c1ccc(-n2cc(CCc3ccccc3)c3cc(CCC(=O)O)ccc32)cc1` [Example 85, 3-{1-[4-(dimethylamino)phenyl]-3-(2-phenylethyl)-1H-indol-5-yl}propanoic acid], for which the IC50 was determined as 0.077 µM. Consider `CN(C)c1ccc(-n2cc(CCc3ccccc3)c3cc(CCC(=O)O)ccc32)cc1` [Example 86, 3-{1-[4-(dimethylamino)phenyl]-3-(2-phenylethyl)-1H-indol-5-yl}propanoic acid 2-amino-2-(hydroxymethyl)propane-1,3-diol salt (1:1)], for which the IC50 was found to be 0.024 µM. Take `CCN(CC)c1ccc(-n2cc(CCc3ccccc3)c3cc(CCC(=O)O)ccc32)cc1` [Example 88, 3-{1-[4-(diethylamino)phenyl]-3-(2-phenylethyl)-1H-indol-5-yl}propanoic acid]: the IC50 amounted to 0.142 µM. Same read-out and setting: under `CC(=O)Nc1ccc(-n2cc(CCc3ccccc3)c3cc(CCC(=O)O)ccc32)cc1` [Example 91, 3-{1-[4-(acetylamino)phenyl]-3-(2-phenylethyl)-1H-indol-5-yl}propanoic acid 2-amino-2-(hydroxymethyl)propane-1,3-diol salt (1:1)] stands 0.207 µM; under `CC(C)(C)C(=O)Nc1ccc(-n2cc(CCc3ccccc3)c3cc(CCC(=O)O)ccc32)cc1` [Example 93, 3-[1-{4-[(2,2-dimethylpropanoyl)amino]phenyl}-3-(2-phenylethyl)-1H-indol-5-yl]propanoic acid 2-amino-2-(hydroxymethyl)propane-1,3-diol salt (1:1)], 0.112 µM; under `Cc1ccc(-n2cc(CCc3ccccc3)c3cc(CCC(=O)O)ccc32)cc1` [Example 95, 3-[1-(4-methylphenyl)-3-(2-phenylethyl)-1H-indol-5-yl]propanoic acid 2-amino-2-(hydroxymethyl)propane-1,3-diol salt (1:1)], 0.077 µM. For the compound `Cc1cccc(-n2cc(CCc3ccccc3)c3cc(CCC(=O)O)ccc32)c1` [Example 97, 3-[1-(3-methylphenyl)-3-(2-phenylethyl)-1H-indol-5-yl]propanoic acid 2-amino-2-(hydroxymethyl)propane-1,3-diol salt (1:1)], the IC50 was 0.099 µM.

With `Cc1ccccc1-n1cc(CCc2ccccc2)c2cc(CCC(=O)O)ccc21` [Example 99, 3-[1-(2-methylphenyl)-3-(2-phenylethyl)-1H-indol-5-yl]propanoic acid 2-amino-2-(hydroxymethyl)propane-1,3-diol salt (1:1)], the IC50 was 0.288 µM.

Consider `Cc1ccc(-n2cc(CCc3ccccc3)c3cc(CCC(=O)O)ccc32)cc1C` [Example 101, 3-[1-(3,4-dimethylphenyl)-3-(2-phenylethyl)-1H-indol-5-yl]propanoic acid 2-amino-2-(hydroxymethyl)propane-1,3-diol salt (1:1)], for which the IC50 was 0.096 µM. On to `CC(C)(C)c1ccc(-n2cc(CCc3ccccc3)c3cc(CCC(=O)O)ccc32)cc1` [Example 103, 3-[1-(4-tert-butylphenyl)-3-(2-phenylethyl)-1H-indol-5-yl]propanoic acid 2-amino-2-(hydroxymethyl)propane-1,3-diol salt (1:1)], for which the IC50 turned out to be 0.419 µM. The same measure, in the same setting: in the case of `O=C(O)CCc1ccc2c(c1)c(CCc1ccccc1)cn2-c1ccc(Cl)cc1` [Example 105, 3-[1-(4-chlorophenyl)-3-(2-phenylethyl)-1H-indol-5-yl]propanoic acid 2-amino-2-(hydroxymethyl)propane-1,3-diol salt (1:1)] it was 0.036 µM.

With `COc1cccc(-n2cc(CCc3ccccc3)c3cc(CCC(=O)O)ccc32)c1` [Example 107, 3-[1-(3-methoxyphenyl)-3-(2-phenylethyl)-1H-indol-5-yl]propanoic acid 2-amino-2-(hydroxymethyl)propane-1,3-diol salt (1:1)], the IC50 amounted to 0.195 µM.
